# Measurements as given in patent publication US20050112573A1, “Method of detecting toxic substance” (priority 2001, published 2005).
# Test system: yeast genes (level of expressed mRNA)
# Assay: DNA chip analysis of expressed mRNA of yeast genes after 2 h culture with a toxic chemical substance
# Assay type: cell-based, Saccharomyces cerevisiae S288C
# Protocol: Yeast (Saccharomyces cerevtisiae S288C (α SUC2mal mel gap2 CUP1)) were cultured at 25° C. on YPD medium (yeast extract 1%, polypepton 2%, glucose 2%). One of toxic chemical substances was added to the cell at logarithmic growth phase, and the cell was further cultured for two hours. Cell was cultured without any chemical substance in the same condition, and was used as control. Concentrations of the chemical substances were defined to inhibit the growth of the yeast but not lead to death.
# After the completion of cultivation, the culture was centrifuged to collect the cells. To the cells, sodium acetate buffer (50 mM sodium acetate, 10 mM EDTA, 1% SDS) was added, and the mixture was shaken at 65° C. for five minutes, followed by returning to room temperature, and obtaining the supernatant, which procedure was repeated two times. To the supernatant, ½ amount of a solution of phenol/chloroform was added, and the mixture was centrifuged to give a supernatant, which was added with an equal amount of chloroform, and the mixture was centrifuged to give a supernatant. To the supernatant, an equal amount of isopropanol containing 0.3 M sodium acetate was added, and the mixture was allowed to stand at room temperature for 30 minutes, after which the mixture was centrifuged to give a sediment of the whole RNAs. Seventy % ethanol was added to the sediment, and the mixture was again centrifuged to give a sediment, which was then dried and dissolved in water. mRNA was isolated from the whole RNAs as followings. In view of the fact that a poly A chain is attached to the 3′ terminus of mRNA, a polynucleotide having a poly T structure which was immobilized on the surface of latex beads was used to trap the mRNA, and then the mRNA was washed and eluted with spine column (Oligotex-dT30<Super>mRNA Purification Kit, Takara). Reverse transcription of the mRNA was conducted with a reverse transcriptase (Super Script II Reverse Transcriptase; catalogue No. 18064-014, GibcoBRL) using fluorescence-labeled nucleotides to give cDNAs that were introduced with Cy3-dUTP or Cy5-dUTP during the reverse transcription.
# The labeled cDNAs were dissolved in TE buffer (10 mM Tris-HCl/1 mM EDTA, pH8.0), and the solution was dropped on the DNA chip containing the whole genes of yeast (DNA Chip Research Inc. Japan) so that the cDNAs were hybridized on the DNA chip at 65° C. for over 12 hours. The fluoresces intensity of the DNA chip was read with a scanner, and the ratio relative to the fluorescence intensity resulting from the absence of chemical substance was estimated as the following, which is shown in Tables 1 to 9: [formula]
# In the Tables, “Intensity” indicated in the rightmost column is a value of the level of expressed mRNA of each gene in control cells as divided by the average level of the expressions of the whole genes.
compound,measurement,setting,value
"S=C([S-])NCCNC(=S)[S-].[Zn+2] [(11), zinc N,N′-ethylenebis(dithiocarbamate)]",level of expressed mRNA in the presence of chemical substance/in its absence,gene YAL012W,4.0
same,The level of expressed mRNA in the presence of chemical substance/absence: YAL014C,gene YAL014C,1.7
same,The level of expressed mRNA in the presence of chemical substance/absence: YAL017W,gene YAL017W,0.7
same,The level of expressed mRNA in the presence of chemical substance/absence: YAL018C,gene YAL018C,0.1
same,level of expressed mRNA in the presence of chemical substance/in its absence,gene YAL038W,1.0
same,level of expressed mRNA in the presence of chemical substance/in its absence,gene YAL044C,1.4
same,The level of expressed mRNA in the presence of chemical substance/absence: YAL049C,gene YAL049C,1.0
same,level of expressed mRNA in the presence of chemical substance/in its absence,gene YAL054C,1.3
same,The level of expressed mRNA in the presence of chemical substance/absence: YAR047C,gene YAR047C,1.1
same,The level of expressed mRNA in the presence of chemical substance/absence: YAR064W,gene YAR064W,0.7
same,level of expressed mRNA in the presence of chemical substance/in its absence,gene YAR071W,1.1
same,level of expressed mRNA in the presence of chemical substance/in its absence,gene YBL001C,2.3
same,The level of expressed mRNA in the presence of chemical substance/absence: YBL044W,gene YBL044W,0.6
same,The level of expressed mRNA in the presence of chemical substance/absence: YBL100C,gene YBL100C,0.9
same,The level of expressed mRNA in the presence of chemical substance/absence: YBR012C,gene YBR012C,0.7
same,The level of expressed mRNA in the presence of chemical substance/absence: YBR013C,gene YBR013C,1.2
same,level of expressed mRNA in the presence of chemical substance/in its absence,gene YBR014C,1.8
same,level of expressed mRNA in the presence of chemical substance/in its absence,gene YBR023C,0.9
same,level of expressed mRNA in the presence of chemical substance/in its absence,gene YBR029C,0.7
same,level of expressed mRNA in the presence of chemical substance/in its absence,gene YBR035C,2.0
same,level of expressed mRNA in the presence of chemical substance/in its absence,gene YBR050C,1.1
same,The level of expressed mRNA in the presence of chemical substance/absence: YBR051W,gene YBR051W,0.1
same,The level of expressed mRNA in the presence of chemical substance/absence: YBR063C,gene YBR063C,0.6
same,The level of expressed mRNA in the presence of chemical substance/absence: YBR066C,gene YBR066C,1.2
same,level of expressed mRNA in the presence of chemical substance/in its absence,gene YBR068C,0.8
same,level of expressed mRNA in the presence of chemical substance/in its absence,gene YBR111C,1.5
same,The level of expressed mRNA in the presence of chemical substance/absence: YBR124W,gene YBR124W,0.4
same,The level of expressed mRNA in the presence of chemical substance/absence: YBR129C,gene YBR129C,1.4
same,level of expressed mRNA in the presence of chemical substance/in its absence,gene YBR145W,1.1
same,The level of expressed mRNA in the presence of chemical substance/absence: YBR162C,gene YBR162C,0.8
same,level of expressed mRNA in the presence of chemical substance/in its absence,gene YBR183W,1.9
same,level of expressed mRNA in the presence of chemical substance/in its absence,gene YBR222C,1.3
same,The level of expressed mRNA in the presence of chemical substance/absence: YBR255W,gene YBR255W,1.5
same,The level of expressed mRNA in the presence of chemical substance/absence: YBR281C,gene YBR281C,1.4
same,The level of expressed mRNA in the presence of chemical substance/absence: YBR287W,gene YBR287W,2.0
same,level of expressed mRNA in the presence of chemical substance/in its absence,gene YBR299W,2.4
same,level of expressed mRNA in the presence of chemical substance/in its absence,gene YCL009C,1.5
same,The level of expressed mRNA in the presence of chemical substance/absence: YCL042W,gene YCL042W,3.2
same,The level of expressed mRNA in the presence of chemical substance/absence: YCL044C,gene YCL044C,1.1
same,The level of expressed mRNA in the presence of chemical substance/absence: YCL056C,gene YCL056C,1.5
same,level of expressed mRNA in the presence of chemical substance/in its absence,gene YCL064C,1.8
same,The level of expressed mRNA in the presence of chemical substance/absence: YCR007C,gene YCR007C,1.1
same,level of expressed mRNA in the presence of chemical substance/in its absence,gene YCR037C,0.8
same,level of expressed mRNA in the presence of chemical substance/in its absence,gene YCR048W,1.2
same,level of expressed mRNA in the presence of chemical substance/in its absence,gene YCR098C,1.3
same,level of expressed mRNA in the presence of chemical substance/in its absence,gene YDL022W,2.8
same,The level of expressed mRNA in the presence of chemical substance/absence: YDL046W,gene YDL046W,2.6
same,The level of expressed mRNA in the presence of chemical substance/absence: YDL089W,gene YDL089W,2.0
same,The level of expressed mRNA in the presence of chemical substance/absence: YDL173W,gene YDL173W,1.2
same,The level of expressed mRNA in the presence of chemical substance/absence: YDL193W,gene YDL193W,1.1
same,The level of expressed mRNA in the presence of chemical substance/absence: YDL233W,gene YDL233W,0.7
same,level of expressed mRNA in the presence of chemical substance/in its absence,gene YDR009W,0.1
same,level of expressed mRNA in the presence of chemical substance/in its absence,gene YDR019C,1.8
same,The level of expressed mRNA in the presence of chemical substance/absence: YDR071C,gene YDR071C,1.4
same,The level of expressed mRNA in the presence of chemical substance/absence: YDR078C,gene YDR078C,1.1
same,The level of expressed mRNA in the presence of chemical substance/absence: YDR090C,gene YDR090C,0.7
same,The level of expressed mRNA in the presence of chemical substance/absence: YDR109C,gene YDR109C,0.9
